Where two headings read alike, the source gives them in different places. Numbered stars: 1 amine (or outer) side, 2 acyl side, 3 side chain; on linkers, the order of the positions; unused ones are H or OH. Bridge positions count the residues as written; N and C are the ends. Square brackets hold non-standard residues; d marks the D form. Peptide text beside a SMILES is read from it. * marks the point of attachment. Lys(Me,(CH2)4NMe(CH2)5CO) = CN(CCCCCC(=O)[*:3])CCCCN(C)CCCC[C@H](N[*:1])C(=O)[*:2]; Lys(Me,(CH2)4NMe(CH2)4CO) = CN(CCCCC(=O)[*:3])CCCCN(C)CCCC[C@H](N[*:1])C(=O)[*:2]; Trp(7-Me) = Cc1cccc2c(C[C@H](N)C(=O)O)c[nH]c12; Trp(1-Me) = Cn1cc(C[C@H](N)C(=O)O)c2ccccc21; NH(2-(3-pyridyl)ethyl) = c1cncc(CCN*)c1; αMeLys(Me2) = CN(C)CCCC[C@](C)(N)C(=O)O; 2Nal = N[C@@H](Cc1ccc2ccccc2c1)C(=O)O; 3Pal = N[C@@H](Cc1cccnc1)C(=O)O; Aun = NCCCCCCCCCCC(=O)O; Thp = NC1(C(=O)O)CCOCC1; Me2NCH2CH2 = CN(C)CC*; Aib = CC(C)(N)C(=O)O; Sar = CNCC(=O)O
How the values were obtained:
[1] = Solubility of peptide compounds in buffer formulations (Table 5); type: physicochemical; conditions: target 1 mg/ml
Experimental: Prior to the solubility measurement of a peptide batch, its purity was determined through UHPLC/MS method A.
For solubility testing the target concentration was 1 mg pure compound/ml. Therefore, solutions from solid samples were prepared in a buffer system at a concentration of 1 mg/mL compound. The solid samples were obtained by drying down aliquots of a freshly prepared dimethyl sulfoxide stock solution using a THERMO SPEEDVAC vacuum centrifuge. The dry down time was 3 hours.
The following buffer systems were applied: • Solubility buffer system A) 50 mM HCl pH 1.2 • Solubility buffer system B) 50 mM phosphate buffer pH 6.5 • Solubility buffer system C) 50 mM phosphate buffer pH 7.4 • UHPLC-UV was performed using analytical method A after 2 hours of gentle agitation from the filtered (0.45 μm filter plates) solutions, which were obtained by 10 mins of centrifugation forced filtration at 1500 RCF (relative centrifugal acceleration).
The solubility was determined by the comparison of the UV peak area of 2 μL-injections of a buffered sample diluted 1:10 with a standard curve of a dimethyl sulfoxide reference sample of known concentration. The different extinction coefficients were taken into account for the calculation.

[2] = Protease stability in simulated intestinal fluids (FaSSIF) (Table 7); type: in vitro ADME; conditions: fassif with pancreatin, 37° C.; for remaining at 1 h, 1 µM: 60 min, read-out: Remaining percentage of peptide compound, FaSSIF 60 (min); for remaining at 2 h, 1 µM: 120 min, read-out: Remaining percentage of peptide compound, FaSSIF 120 (min); for remaining at 4 h, 1 µM: 240 min, read-out: Remaining percentage of peptide compound, FaSSIF 240 (min)
Experimental: (§1) Studies were carried out in simulated intestinal fluid (SIF) and simulated gastric fluid (SGF) to evaluate gastric stability of the peptide compounds disclosed herein.
Similarly, the term “Pancreatin-SIF” refers to a solution of simulated intestinal fluid containing pancreatin whereas “SIF-media” refers to a solution of simulated intestinal fluid without pancreatin. Pancreatin-SIF was prepared by dissolving 1 mg Pancreatin (MP Biomedicals) in 10 mL SIF media concentrate (PROSENSE).
(§2) Peptide compounds were first dissolved at 1 mM stock concentration in 0.01 HCl (+/−10% of DMSO) and were than diluted further with water to a stock concentration of 20 μM. Final peptide concentration in the incubation was 1 μM.
(§3) To 76 μL of the Pepsin-SGF buffer, 4 μL of the 20 μM peptide stock solution was added and incubated at 37° C. At each timepoint (0, 60, 120 and 240 minutes) the reaction was quenched with addition of 80 μL Ethanol (0.1% HCOOH). The samples were centrifuged for 20 minutes and an aliquot of the supernatant 100 μL were transferred to a LoBind-MTP plate and analyzed by LCMS/MS. The peak area response was calculated at each time point for each test compound. As internal reference, the peak area response of the same test compound at T0 was calculated. The percentage remaining at each timepoint was calculated based on the peak area response ratio of the test compound at T0. Time 0 was set to 100%, and all later timepoints were calculated relative to time 0.

[3] = Protease stability in simulated gastric fluids (FaSSGF) (Table 7); type: in vitro ADME; conditions: fassgf with pepsin, 60 min, 37° C., read-out: Remaining percentage of peptide compound, FaSSGF 60 (min)
Experimental: as §1
For clarification, the term “Pepsin-SGF” refers to a solution of simulated gastric fluid containing pepsin whereas “SGF media” refers to a solution of simulated gastric fluid without pepsin. Pepsin-SGF was prepared by dissolving 320 mg Pepsin (Merck Millipore) in 100 mL SGF media concentrate (PROSENSE).
as §2
as §3, with “(0,1%” for “(0.1%”
as §3

[4] = system: IL-23 induced STAT3 signaling (IL-23 receptor) in HEK-Blue IL-23 cells; test: Inhibition of IL-23 induced STAT3 signaling in HEK-Blue IL-23 cells, SEAP reporter (Table 9); type: cell-based; conditions: human IL23 0.25 ng/ml, overnight, read-out: Inhibition of IL-23 induced pSTAT3 (IC50 nM)
Description: HEK-Blue™ IL-23 cells (INVIVOGEN) are designed for the detection of bioactive human (hIL-23) and murine IL-23 (mIL-23) by monitoring the activation of the STAT3 pathway. Binding of IL-23 to its receptor on the surface of HEK-Blue™ IL-23 cells triggers a signaling cascade leading to the activation of STAT3 and the subsequent production of secreted embryonic alkaline phosphatase (SEAP). This can be readily assessed using QUANTI-Blue™ Solution, a SEAP detection reagent.
HEK-Blue™ IL-23 cells were cultured as described by INVIVOGEN.
On the first day of assay 10 μL of the HEK-BLUE IL23 cell suspension (final concentration: 10,000 cells/well) and 10 μl of serially diluted peptides solutions were dispensed into a 384-well assay plate. After pre-incubation of the reaction mixtures at 37° C./5% CO2/95% humidity for 60 minutes, 10 μl of the humanIL23 cytokine (final concentration: 0.25 ng/ml) was added to each well for the STAT3 signaling activation. The plate was incubated overnight at 37° C./5% CO2/95% humidity.
On the second day 20 μl per well of QUANTI-BLUE detection solution (prepared according to the manufacture instruction) was dispensed into a new 384-well plate and followed by the transfer of 5 μl supernatant of the overnight incubated cell/sample mixtures. After incubation of 45 min at room temperature signals were measured with PHERASTAR (BMG) at OD 620-655 nm.
Dose response data were fitted with XLfit.

[5] = Buffer pH 1.1 (head; method: 50 mM HCl pH 1.2), 2 h agitation, read-out: Solubility, Buffer pH 1.1
[6] = aqueous buffer, 50 mM phosphate buffer pH 6.5, 2 h agitation, read-out: Solubility, Buffer pH 6.5
[7] = aqueous buffer, 50 mM phosphate buffer pH 7.4, 2 h agitation, read-out: Solubility, Buffer pH 7.4

Row | Structure (SMILES) | solubility at 2 h [1, 5] [µg/mL] | solubility at 2 h [1, 6] [µg/mL] | solubility at 2 h [1, 7] [µg/mL] | remaining at 1 h, 1 µM [2] [%] | remaining at 2 h, 1 µM [2] [%] | remaining at 4 h, 1 µM [2] [%] | remaining at 1 h, 1 µM [3] [%] | IC50 [4] [nM]
1 | CN(C)CCOc1ccc(C[C@@H]2NC(=O)C3(CCOCC3)NC(=O)[C@H](CCC(N)=O)NC(=O)[C@H](Cc3cn(C)c4ccccc34)NC(=O)CCCCCN(C)CCCCN(C)CCCC[C@@H](C(=O)N[C@@H](CC(N)=O)C(=O)N[C@@H](Cc3cccnc3)C(=O)N(C)CC(N)=O)NC(=O)C(C)(C)NC(=O)[C@H](Cc3ccc4ccccc4c3)NC2=O)cc1 [compound 33] ([Trp(1-Me)]Q[Thp]Y(Me2NCH2CH2)[2Nal][Aib][Lys(Me,(CH2)4NMe(CH2)5CO)]N[3Pal][Sar]-NH2; lactam N-7) | ≥ 1000 | ≥ 1120 | ≥ 950 | 97 | 94 | 94 | 100 | 0.8
2 | CC(=O)NCCCC[C@@H]1NC(=O)[C@H](Cc2c[nH]c3ccccc23)NC(=O)CCCCN(C)CCCCN(C)CCCC[C@@H](C(=O)N[C@@H](CO)C(=O)N[C@@H](Cc2cccnc2)C(=O)N(C)CC(N)=O)NC(=O)C(C)(C)NC(=O)[C@H](Cc2ccc3ccccc3c2)NC(=O)[C@H](Cc2ccc(OCCN(C)C)cc2)NC(=O)C2(CCOCC2)NC1=O [compound 42] (WK(Ac)[Thp]Y(Me2NCH2CH2)[2Nal][Aib][Lys(Me,(CH2)4NMe(CH2)4CO)]S[3Pal][Sar]-NH2; lactam N-7) | ≥ 1010 | ≥ 1030 | ≥ 1040 | 59 | 42 | 23 | 100 | 4.37
3 | CN(C)CCOc1ccc(C[C@@H]2NC(=O)C3(CCOCC3)NC(=O)[C@H](CCC(N)=O)NC(=O)[C@H](Cc3cn(C)c4ccccc34)NC(=O)CCCCN(C)CCCCN(C)CCCC[C@@H](C(=O)NCC(=O)NCCc3cccnc3)NC(=O)C(C)(C)NC(=O)[C@H](Cc3ccc4ccccc4c3)NC2=O)cc1 [compound 25] ([Trp(1-Me)]Q[Thp]Y(Me2NCH2CH2)[2Nal][Aib][Lys(Me,(CH2)4NMe(CH2)4CO)]G-{NH(2-(3-pyridyl)ethyl)}; lactam N-7) | ≥ 950 | ≥ 890 | ≥ 860 | 97 | 95 | 96 | 98 | 42.5

Further lines, with some results ahead:

Row | solubility at 2 h [1, 5] [µg/mL] | solubility at 2 h [1, 6] [µg/mL] | solubility at 2 h [1, 7] [µg/mL] | remaining at 1 h, 1 µM [2] [%] | remaining at 2 h, 1 µM [2] [%] | remaining at 4 h, 1 µM [2] [%] | remaining at 1 h, 1 µM [3] [%] | Structure (SMILES) | IC50 [4] [nM]
4 | ≥ 1200 | ≥ 1150 | ≥ 1170 | 97 | 91 | 91 | 98 | CC(=O)NCCCC[C@@H]1NC(=O)[C@H](Cc2c[nH]c3c(C)cccc23)NC(=O)CCCCN(C)CCCCN(C)CCCC[C@@H](C(=O)N[C@@H](CC(N)=O)C(=O)N[C@@H](Cc2cccnc2)C(=O)N(C)CC(N)=O)NC(=O)[C@](C)(CCCCN(C)C)NC(=O)[C@H](Cc2ccc3ccccc3c2)NC(=O)[C@H](Cc2ccc(OCCN(C)C)cc2)NC(=O)C2(CCOCC2)NC1=O [compound 47] ([Trp(7-Me)]K(Ac)[Thp]Y(Me2NCH2CH2)[2Nal][αMeLys(Me2)][Lys(Me,(CH2)4NMe(CH2)4CO)]N[3Pal][Sar]-NH2; lactam N-7) | 1.2
5 | ≥ 1150 | ≥ 1170 | ≥ 1010 | 97 | 100 | 101 | 91 | CC(=O)NCCCC[C@@H]1NC(=O)[C@H](Cc2c[nH]c3c(C)cccc23)NC(=O)CCCCCCCCCCNC(=O)CC[C@@H](C(=O)N[C@@H](CC(N)=O)C(=O)N[C@@H](Cc2cccnc2)C(=O)N(C)CC(N)=O)NC(=O)[C@](C)(CCCCN(C)C)NC(=O)[C@H](Cc2ccc3ccccc3c2)NC(=O)[C@H](Cc2ccc(OCCN(C)C)cc2)NC(=O)C2(CCOCC2)NC1=O [compound 21] ([Aun][Trp(7-Me)]K(Ac)[Thp]Y(Me2NCH2CH2)[2Nal][αMeLys(Me2)]EN[3Pal][Sar]-NH2; lactam N-8) | 0.27
6 | ≥ 980 | ≥ 920 | ≥ 960 | 97 | 94 | 94 | 100 | CC(=O)NCCCC[C@@H]1NC(=O)[C@H](Cc2c[nH]c3c(C)cccc23)NC(=O)CCCCCN(C)CCCCN(C)CCCC[C@@H](C(=O)NCC(=O)N[C@@H](Cc2cccnc2)C(=O)N(C)CC(N)=O)NC(=O)C(C)(C)NC(=O)[C@H](Cc2ccc3ccccc3c2)NC(=O)[C@H](Cc2ccc(OCCN(C)C)cc2)NC(=O)C2(CCOCC2)NC1=O [compound 27] ([Trp(7-Me)]K(Ac)[Thp]Y(Me2NCH2CH2)[2Nal][Aib][Lys(Me,(CH2)4NMe(CH2)5CO)]G[3Pal][Sar]-NH2; lactam N-7) | 3.12

Source: patent US20260297129A1, “PEPTIDES AS SELECTIVE IL-23 RECEPTOR INHIBITORS” (SANOFI, priority 2023, published 2026)
